Measured values taken from PubChem BioAssay AID212 (DTP/NCI, 2004).
Where “and” joins values, the source holds several entries; their conditions need not be identical. Identical values can stand only once. Records with an inconclusive call do not appear.

Tested on: BDF1 mice, colon carcinoma 38 sc, T/C %
Assay: NCI In Vivo Anticancer Drug Screen. Data for tumor model Colon Carcinoma 38 (subcutaneous) in B6D2F1 (BDF1) mice
Details: endpoint: median tumor weight (est.), higher = larger tumour
Method in brief: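 Transplantable tumor in mice; compound-treated vs vehicle-dosed controls. Measured survival or tumor size; value = T ÷ C.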

[1] = dose: 100.0 mg/kg/injection, schedule: Q07DX002 (ip), vehicle: Klucel (hydroxypropylcellulose) (HPC)
[2] = dose: 200.0 mg/kg/injection, schedule: Q07DX002 (ip), vehicle: Klucel (hydroxypropylcellulose) (HPC)
[3] = dose: 400.0 mg/kg/injection, schedule: Q07DX002 (ip), vehicle: Klucel (hydroxypropylcellulose) (HPC)
[4] = dose: 50.0 mg/kg/injection, schedule: Q07DX002 (ip), vehicle: saline
[5] = dose: 200.0 mg/kg/injection, schedule: Q07DX002 (ip), vehicle: saline
[6] = dose: 400.0 mg/kg/injection, schedule: Q07DX002 (ip), vehicle: saline
[7] = dose: 6.25 mg/kg/injection, schedule: Q07DX002 (ip), vehicle: saline
[8] = dose: 12.5 mg/kg/injection, schedule: Q07DX002 (ip), vehicle: saline
[9] = dose: 50.0 mg/kg/injection, schedule: Q07DX002 (ip), vehicle: saline with Tween-80
[10] = dose: 100.0 mg/kg/injection, schedule: Q07DX002 (ip), vehicle: saline with Tween-80
[11] = dose: 200.0 mg/kg/injection, schedule: Q07DX002 (ip), vehicle: saline with Tween-80
[12] = dose: 6.25 mg/kg/injection, schedule: Q07DX002 (ip), vehicle: saline with Tween-80
[13] = dose: 12.5 mg/kg/injection, schedule: Q07DX002 (ip), vehicle: saline with Tween-80
[14] = dose: 25.0 mg/kg/injection, schedule: Q07DX002 (ip), vehicle: saline with Tween-80
[15] = dose: 50.0 mg/kg/injection, schedule: Q07DX002 (ip), vehicle: Klucel (hydroxypropylcellulose) (HPC)
[16] = dose: 25.0 mg/kg/injection, schedule: Q07DX002 (ip), vehicle: Klucel (hydroxypropylcellulose) (HPC)
[17] = dose: 400.0 mg/kg/injection, schedule: Q07DX002 (ip), vehicle: saline with Tween-80

In the case of C=C1C(=O)OC2/C=C(\CO)C(OC(C)=O)CC(O)/C(C)=C/C(OC(=O)C(C)CC)C12 (configuration not stated), the T/C [1] is reported as 165 % of control, the T/C [2] is reported as 95 % of control and the T/C [3] is reported as 178 % of control.

For Cc1nnc2ncccn12, the T/C [4] was 84 % of control and 105 % of control, the T/C [5] was 113 % of control and 102 % of control and the T/C [6] was 81 % of control.

In the case of NCCc1ccc(O)c(O)c1, the T/C (dose: 112.5 mg/kg/injection, schedule: Q07DX002 (ip), vehicle: Klucel (hydroxypropylcellulose) (HPC)) is reported as 122 % of control, the T/C (dose: 225.0 mg/kg/injection, schedule: Q07DX002 (ip), vehicle: Klucel (hydroxypropylcellulose) (HPC)) is reported as 109 % of control and 87 % of control and the T/C (dose: 450.0 mg/kg/injection, schedule: Q07DX002 (ip), vehicle: Klucel (hydroxypropylcellulose) (HPC)) is reported as 113 % of control and 103 % of control. The T/C (dose: 900.0 mg/kg/injection, schedule: Q07DX002 (ip), vehicle: Klucel (hydroxypropylcellulose) (HPC)) was 95 % of control and 97 % of control.

For C=C(C)[C@H]1CN[C@H](C(=O)O)[C@H]1CC(=O)O, the T/C (dose: 0.62 mg/kg/injection, schedule: Q07DX002 (ip), vehicle: saline) was 58 % of control, the T/C (dose: 1.25 mg/kg/injection, schedule: Q07DX002 (ip), vehicle: saline) was 80 % of control and the T/C (dose: 2.5 mg/kg/injection, schedule: Q07DX002 (ip), vehicle: saline) was 92 % of control. The T/C (dose: 5.0 mg/kg/injection, schedule: Q07DX002 (ip), vehicle: saline) was 95 % of control, the T/C [7] was 90 % of control and the T/C (dose: 10.0 mg/kg/injection, schedule: Q07DX002 (ip), vehicle: saline) was 79 % of control. For the same compound, the T/C [8] was 73 % of control, the T/C (dose: 20.0 mg/kg/injection, schedule: Q07DX002 (ip), vehicle: saline) was 90 % of control and the T/C (dose: 25.0 mg/kg/injection, schedule: Q07DX002 (ip), vehicle: saline) was 90 % of control.

With COc1cc2c[n+](C)c3c4cc5c(cc4ccc3c2cc1OC)OCO5 the T/C (dose: 20.0 mg/kg/injection, schedule: Q07DX003 (ip), vehicle: saline with Tween-80) was 110 % of control and the T/C (dose: 40.0 mg/kg/injection, schedule: Q07DX003 (ip), vehicle: saline with Tween-80) was 97 % of control.

CS(=O)(=O)Nc1ccc(C(=O)CCN2CCCCCC2)cc1 was tested, and the T/C [9] was 96 % of control, the T/C [10] was 86 % of control and the T/C [11] was 95 % of control.

In the case of Nc1cccc(=O)[nH]1, the T/C (dose: 25.0 mg/kg/injection, schedule: Q07DX002 (ip), vehicle: suspension in saline) is reported as 116 % of control, the T/C [4] is reported as 92 % of control and the T/C (dose: 50.0 mg/kg/injection, schedule: Q07DX002 (ip), vehicle: suspension in saline) is reported as 66 % of control. The T/C (dose: 100.0 mg/kg/injection, schedule: Q07DX002 (ip), vehicle: saline) was 113 % of control, the T/C (dose: 100.0 mg/kg/injection, schedule: Q07DX002 (ip), vehicle: suspension in saline) was 87 % of control and the T/C [5] was 94 % of control. The T/C (dose: 200.0 mg/kg/injection, schedule: Q07DX002 (ip), vehicle: suspension in saline) was 77 % of control, the T/C [6] was 91 % of control and the T/C (dose: 400.0 mg/kg/injection, schedule: Q07DX002 (ip), vehicle: suspension in saline) was 74 % of control. For the same compound, the T/C (dose: 800.0 mg/kg/injection, schedule: Q07DX002 (ip), vehicle: saline) was 95 % of control.

For Cc1cc(N(CC(C)Br)CC(C)Br)ccc1N=Nc1ccccc1C(=O)O (configuration not stated), the T/C (dose: 1.56 mg/kg/injection, schedule: Q07DX002 (ip), vehicle: saline with Tween-80) was 87 % of control and 96 % of control, the T/C [12] was 85 % of control and the T/C [13] was 95 % of control and 102 % of control. For the same compound, the T/C [14] was 73 % of control and 86 % of control.

For O=S1(=O)C=C(c2ccccc2)C(c2ccccc2)=C1, the T/C [12] was 112 % of control and 97 % of control, the T/C [9] was 62 % of control and 80 % of control and the T/C [10] was 84 % of control. For the same compound, the T/C [11] was 88 % of control.

For O=C(NO)c1ccc(O)c(O)c1, the T/C (dose: 50.0 mg/kg/injection, schedule: Q07DX002 (ip), vehicle: water) was 88 % of control, the T/C (dose: 100.0 mg/kg/injection, schedule: Q07DX002 (ip), vehicle: water) was 92 % of control and the T/C (dose: 200.0 mg/kg/injection, schedule: Q07DX002 (ip), vehicle: water) was 85 % of control. The T/C (dose: 400.0 mg/kg/injection, schedule: Q07DX002 (ip), vehicle: water) was 48 % of control.

With CC1C2CCC3C(O)C2(CC(O)C2(O)C1CC(O)C2(C)C)CC3(C)O (configuration not stated) the T/C (dose: 0.5 mg/kg/injection, schedule: Q07DX002 (ip), vehicle: Klucel (hydroxypropylcellulose) (HPC)) was 103 % of control and the T/C (dose: 2.0 mg/kg/injection, schedule: Q07DX002 (ip), vehicle: Klucel (hydroxypropylcellulose) (HPC)) was 181 % of control.

Cc1cc(Nc2ccc3c(c2)OCO3)c2cc3c(cc2n1)OCO3 was tested, and the T/C [15] was 86 % of control, the T/C [1] was 85 % of control and the T/C [2] was 36 % of control.

With Nc1nc(N)c2c(ccc3c2ccn3Cc2cccc([N+](=O)[O-])c2)n1 the T/C (dose: 3.12 mg/kg/injection, schedule: Q07DX002 (ip), vehicle: saline with Tween-80) was 85 % of control, the T/C [12] was 80 % of control and the T/C [13] was 72 % of control. For the same compound, the T/C [14] was 14 % of control.

For COc1cccc2c1C(=O)c1c(O)c3c(c(O)c1C2=O)CC(O)(/C(C)=N/NC(=O)CCCCC(=O)N/N=C(\C)C1(O)Cc2c(O)c4c(c(O)c2C(OC2CC(N)C(O)C(C)O2)C1)C(=O)c1c(OC)cccc1C4=O)CC3OC1CC(N)C(O)C(C)O1 (configuration not stated), the T/C [7] was 46 % of control, the T/C (dose: 6.25 mg/kg/injection, schedule: Q07DX002 (ip), vehicle: water) was 68 % of control and the T/C [8] was 32 % of control. For the same compound, the T/C (dose: 12.5 mg/kg/injection, schedule: Q07DX002 (ip), vehicle: water) was 21 % of control.

With CS(=O)(=O)OCCCNCCCOS(C)(=O)=O the T/C (dose: 9.3 mg/kg/injection, schedule: Q07DX003 (ip), vehicle: saline) was 43 % of control, the T/C (dose: 18.75 mg/kg/injection, schedule: Q07DX003 (ip), vehicle: saline) was 73 % of control and the T/C (dose: 37.5 mg/kg/injection, schedule: Q07DX003 (ip), vehicle: saline) was 58 % of control. For the same compound, the T/C (dose: 75.0 mg/kg/injection, schedule: Q07DX003 (ip), vehicle: saline) was 36 % of control.

For CC(C)CCC[C@@H](C)[C@H]1CC[C@H]2[C@@H]3CC=C4C[C@@H](OC(=O)Cc5ccc(N(CCCl)CCCl)cc5)CC[C@]4(C)[C@H]3CC[C@]12C, the T/C [16] was 85 % of control, the T/C [15] was 111 % of control and the T/C [1] was 103 % of control. The T/C [2] was 103 % of control, the T/C [3] was 77 % of control and the T/C (dose: 800.0 mg/kg/injection, schedule: Q07DX002 (ip), vehicle: Klucel (hydroxypropylcellulose) (HPC)) was 82 % of control.

For COC(=O)Nc1ccc(Cc2ccc(NC(=O)OC)cc2)cc1, the T/C [12] was 60 % of control and the T/C [17] was 87 % of control and 102 % of control.

For c1cc(OCC2CO2)ccc1OCC1CO1 (configuration not stated), the T/C [16] was 76 % of control, the T/C [15] was 96 % of control and the T/C [9] was 113 % of control. The T/C [1] was 67 % of control, the T/C [10] was 94 % of control and the T/C [2] was 63 % of control. The T/C [11] was 82 % of control, the T/C [3] was 77 % of control and the T/C [17] was 102 % of control. The T/C (dose: 800.0 mg/kg/injection, schedule: Q07DX002 (ip), vehicle: saline with Tween-80) was 77 % of control.

For Cc1c2cc[n+](C)cc2c(C)c2c1[nH]c1ccc(O)cc12, the T/C (dose: 0.12 mg/kg/injection, schedule: Q07DX002 (ip), vehicle: water) was 119 % of control, the T/C (dose: 0.25 mg/kg/injection, schedule: Q07DX002 (ip), vehicle: water) was 62 % of control and the T/C (dose: 0.5 mg/kg/injection, schedule: Q07DX002 (ip), vehicle: water) was 69 % of control. The T/C (dose: 0.63 mg/kg/injection, schedule: Q07DX002 (ip), vehicle: water) was 67 % of control, the T/C (dose: 1.0 mg/kg/injection, schedule: Q07DX002 (ip), vehicle: water) was 123 % of control and the T/C (dose: 1.25 mg/kg/injection, schedule: Q07DX002 (ip), vehicle: water) was 52 % of control. For the same compound, the T/C (dose: 1.5 mg/kg/injection, schedule: Q07DX002 (ip), vehicle: water) was 116 % of control, the T/C (dose: 2.5 mg/kg/injection, schedule: Q07DX002 (ip), vehicle: water) was 72 % of control and the T/C (dose: 3.0 mg/kg/injection, schedule: Q07DX002 (ip), vehicle: water) was 122 % of control. For the same compound, the T/C (dose: 4.0 mg/kg/injection, schedule: Q07DX002 (ip), vehicle: water) was 70 % of control and the T/C (dose: 5.0 mg/kg/injection, schedule: Q07DX002 (ip), vehicle: water) was 71 % of control.
